{"source": "patent US20250032465A1", "about": "“METHODS OF TREATING CNS DISORDERS” (HANGZHOU HIGHLIGHTLL PHARMACEUTICAL CO., LTD, priority 2021, published 2025)", "key": {"TYK2": {"biological_target": "T1, TYK2 (Homo sapiens, UniProt P29597)", "T1 construct": "purchased Reaction Biology Corp, Malvern, PA (contract testing)", "T1 sequence (P29597 whole entry)": "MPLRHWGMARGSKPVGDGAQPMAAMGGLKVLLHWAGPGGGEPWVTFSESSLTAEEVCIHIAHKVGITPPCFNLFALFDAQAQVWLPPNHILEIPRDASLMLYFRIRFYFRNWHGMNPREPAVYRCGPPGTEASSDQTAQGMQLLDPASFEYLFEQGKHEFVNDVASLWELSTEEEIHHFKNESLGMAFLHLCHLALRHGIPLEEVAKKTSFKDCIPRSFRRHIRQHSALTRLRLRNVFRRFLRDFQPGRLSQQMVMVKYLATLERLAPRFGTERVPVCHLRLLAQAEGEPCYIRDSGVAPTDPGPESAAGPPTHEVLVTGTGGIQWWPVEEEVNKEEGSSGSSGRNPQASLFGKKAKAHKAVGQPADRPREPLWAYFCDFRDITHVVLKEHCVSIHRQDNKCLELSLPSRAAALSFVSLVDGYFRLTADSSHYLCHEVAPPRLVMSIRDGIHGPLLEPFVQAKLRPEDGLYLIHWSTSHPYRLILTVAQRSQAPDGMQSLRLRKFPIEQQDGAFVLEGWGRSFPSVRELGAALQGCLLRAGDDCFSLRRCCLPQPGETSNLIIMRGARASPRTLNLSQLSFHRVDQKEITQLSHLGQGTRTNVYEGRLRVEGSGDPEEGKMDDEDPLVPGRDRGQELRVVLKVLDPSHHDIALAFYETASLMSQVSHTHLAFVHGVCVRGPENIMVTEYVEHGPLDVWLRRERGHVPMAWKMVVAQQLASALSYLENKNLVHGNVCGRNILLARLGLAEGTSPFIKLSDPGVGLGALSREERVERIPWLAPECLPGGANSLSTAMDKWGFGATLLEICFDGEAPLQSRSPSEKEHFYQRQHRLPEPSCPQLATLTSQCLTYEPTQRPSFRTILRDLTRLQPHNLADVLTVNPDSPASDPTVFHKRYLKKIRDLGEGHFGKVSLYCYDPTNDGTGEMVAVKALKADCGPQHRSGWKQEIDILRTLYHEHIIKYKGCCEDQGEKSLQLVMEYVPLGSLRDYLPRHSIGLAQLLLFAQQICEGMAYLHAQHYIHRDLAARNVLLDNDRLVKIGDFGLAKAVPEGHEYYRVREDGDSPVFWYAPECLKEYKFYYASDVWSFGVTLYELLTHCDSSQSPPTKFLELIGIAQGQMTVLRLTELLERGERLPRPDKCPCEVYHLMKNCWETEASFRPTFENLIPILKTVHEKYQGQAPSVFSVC", "assay": "TYK2 biochemical test (33P-ATP filter binding, Reaction Biology)", "conditions": "read-out: Inhibition of TYK2 (IC50)", "experimental": "(§1) The tests were conducted by Reaction Biology Corp, Malvern, PA (Anastassiadis et al. Nat Biotechnol. 2011; 29(11):1039-45). The step is briefly described as follows, using the basic reaction buffer: 20 mM Hepes (pH 7.5), 10 mM MgCl2, 1 mM EGTA, 0.02% Brij35, 0.02 mg/ml BSA, 0.1 mM Na3VO4, 2 mM DTT and 1% DMSO. The required cofactor was added to each kinase reaction respectively. Each reaction was performed according to the following reaction steps: 1) Preparing the designated substrate in the newly prepared basic reaction buffer; 2) Transferring the required cofactor to the above matrix solution; 3) Transferring the designated kinase to the substrate solution and mixing well slightly; 4) Transferring a compound of Formula (I) in DMSO to the kinase reaction mixture with Acoustic technique (Echo550; nanoliter range), culturing for 20 minutes at room temperature; 5) Introducing ^33P-ATP (specific activity: 10 μCi/μl) to the reaction mixture to trigger a reaction; 6) Culturing at room temperature and conducting a kinase reaction for 2 hours; 7) Plotting the reaction on P81 ion exchange paper; and 8) Testing the kinase activity with a filter binding assay. The results shown in Table 1 indicate that compounds of Formulae (I)-(III) are potent and selective TYK2/JAK1 inhibitors."}, "JAK1": {"biological_target": "T2, JAK1 (Homo sapiens, UniProt P23458)", "T2 construct": "purchased Reaction Biology Corp, Malvern, PA (contract testing)", "T2 sequence (P23458 whole entry)": "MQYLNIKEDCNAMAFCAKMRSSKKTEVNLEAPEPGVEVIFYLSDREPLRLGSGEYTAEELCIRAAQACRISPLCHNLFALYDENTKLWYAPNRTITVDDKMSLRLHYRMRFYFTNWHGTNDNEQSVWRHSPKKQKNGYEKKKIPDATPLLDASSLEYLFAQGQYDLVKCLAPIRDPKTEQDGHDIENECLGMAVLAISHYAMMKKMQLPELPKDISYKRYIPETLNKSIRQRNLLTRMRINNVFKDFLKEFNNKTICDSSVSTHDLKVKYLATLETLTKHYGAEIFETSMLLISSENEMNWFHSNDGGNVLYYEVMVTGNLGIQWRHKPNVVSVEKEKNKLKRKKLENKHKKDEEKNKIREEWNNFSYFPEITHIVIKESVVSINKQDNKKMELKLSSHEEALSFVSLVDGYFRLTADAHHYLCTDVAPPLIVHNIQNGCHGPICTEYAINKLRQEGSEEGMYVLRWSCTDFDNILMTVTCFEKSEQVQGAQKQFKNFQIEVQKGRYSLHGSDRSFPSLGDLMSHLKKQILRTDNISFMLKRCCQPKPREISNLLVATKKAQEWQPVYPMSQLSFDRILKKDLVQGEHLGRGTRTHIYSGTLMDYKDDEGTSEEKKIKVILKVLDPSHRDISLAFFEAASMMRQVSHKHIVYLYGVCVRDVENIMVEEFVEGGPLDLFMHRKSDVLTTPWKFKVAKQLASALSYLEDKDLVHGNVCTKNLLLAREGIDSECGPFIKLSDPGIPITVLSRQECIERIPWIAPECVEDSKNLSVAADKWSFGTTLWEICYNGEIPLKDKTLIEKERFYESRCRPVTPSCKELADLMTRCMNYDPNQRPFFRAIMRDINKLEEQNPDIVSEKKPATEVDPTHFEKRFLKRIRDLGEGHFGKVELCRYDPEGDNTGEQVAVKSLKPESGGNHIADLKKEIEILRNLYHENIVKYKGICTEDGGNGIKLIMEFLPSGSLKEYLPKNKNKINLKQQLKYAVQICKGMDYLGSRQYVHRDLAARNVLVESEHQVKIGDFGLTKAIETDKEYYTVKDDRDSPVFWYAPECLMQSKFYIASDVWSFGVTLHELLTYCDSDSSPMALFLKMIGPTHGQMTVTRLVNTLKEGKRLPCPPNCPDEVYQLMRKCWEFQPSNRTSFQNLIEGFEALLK", "assay": "JAK1 biochemical test (33P-ATP filter binding, Reaction Biology)", "conditions": "read-out: Inhibition of JAK1 (IC50)", "experimental": "as §1"}, "JAK2": {"biological_target": "T3, JAK2 (Homo sapiens, UniProt O60674)", "T3 construct": "purchased Reaction Biology Corp, Malvern, PA (contract testing)", "T3 sequence (O60674 whole entry)": "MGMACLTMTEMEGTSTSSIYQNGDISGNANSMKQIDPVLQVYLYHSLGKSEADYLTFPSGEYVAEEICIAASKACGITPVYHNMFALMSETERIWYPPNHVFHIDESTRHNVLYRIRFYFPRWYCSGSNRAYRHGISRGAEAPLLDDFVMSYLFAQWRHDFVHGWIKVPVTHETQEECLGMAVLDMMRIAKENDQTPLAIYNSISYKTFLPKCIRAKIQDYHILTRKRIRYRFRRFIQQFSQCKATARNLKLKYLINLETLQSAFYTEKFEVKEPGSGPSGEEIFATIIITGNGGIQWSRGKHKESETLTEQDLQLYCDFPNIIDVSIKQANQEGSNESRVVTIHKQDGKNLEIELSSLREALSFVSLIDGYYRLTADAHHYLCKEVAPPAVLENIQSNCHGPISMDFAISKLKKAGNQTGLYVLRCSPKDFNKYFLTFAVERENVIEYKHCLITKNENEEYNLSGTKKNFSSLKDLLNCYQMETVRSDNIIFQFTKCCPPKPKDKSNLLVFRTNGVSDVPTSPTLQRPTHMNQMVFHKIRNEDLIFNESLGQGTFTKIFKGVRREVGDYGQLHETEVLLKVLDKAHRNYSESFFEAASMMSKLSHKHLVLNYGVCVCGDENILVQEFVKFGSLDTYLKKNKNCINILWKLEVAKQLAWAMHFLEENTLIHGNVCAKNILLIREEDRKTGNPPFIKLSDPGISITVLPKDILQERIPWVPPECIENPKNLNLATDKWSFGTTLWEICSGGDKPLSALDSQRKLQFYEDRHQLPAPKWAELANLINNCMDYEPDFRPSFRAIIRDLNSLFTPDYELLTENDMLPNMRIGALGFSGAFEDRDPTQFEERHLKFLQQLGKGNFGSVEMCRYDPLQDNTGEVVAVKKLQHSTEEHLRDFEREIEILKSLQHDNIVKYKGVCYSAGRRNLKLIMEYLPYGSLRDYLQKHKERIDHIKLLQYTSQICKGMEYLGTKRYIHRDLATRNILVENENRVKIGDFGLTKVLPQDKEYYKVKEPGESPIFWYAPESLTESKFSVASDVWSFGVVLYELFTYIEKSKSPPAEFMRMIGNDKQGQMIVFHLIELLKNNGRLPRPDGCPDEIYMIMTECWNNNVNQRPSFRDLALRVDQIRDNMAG", "assay": "JAK2 biochemical test (33P-ATP filter binding, Reaction Biology)", "conditions": "read-out: Inhibition of JAK2 (IC50)", "experimental": "as §1"}, "JAK3": {"biological_target": "T4, JAK3 (Homo sapiens, UniProt P52333)", "T4 construct": "purchased Reaction Biology Corp, Malvern, PA (contract testing)", "T4 sequence (P52333 1-1124)": "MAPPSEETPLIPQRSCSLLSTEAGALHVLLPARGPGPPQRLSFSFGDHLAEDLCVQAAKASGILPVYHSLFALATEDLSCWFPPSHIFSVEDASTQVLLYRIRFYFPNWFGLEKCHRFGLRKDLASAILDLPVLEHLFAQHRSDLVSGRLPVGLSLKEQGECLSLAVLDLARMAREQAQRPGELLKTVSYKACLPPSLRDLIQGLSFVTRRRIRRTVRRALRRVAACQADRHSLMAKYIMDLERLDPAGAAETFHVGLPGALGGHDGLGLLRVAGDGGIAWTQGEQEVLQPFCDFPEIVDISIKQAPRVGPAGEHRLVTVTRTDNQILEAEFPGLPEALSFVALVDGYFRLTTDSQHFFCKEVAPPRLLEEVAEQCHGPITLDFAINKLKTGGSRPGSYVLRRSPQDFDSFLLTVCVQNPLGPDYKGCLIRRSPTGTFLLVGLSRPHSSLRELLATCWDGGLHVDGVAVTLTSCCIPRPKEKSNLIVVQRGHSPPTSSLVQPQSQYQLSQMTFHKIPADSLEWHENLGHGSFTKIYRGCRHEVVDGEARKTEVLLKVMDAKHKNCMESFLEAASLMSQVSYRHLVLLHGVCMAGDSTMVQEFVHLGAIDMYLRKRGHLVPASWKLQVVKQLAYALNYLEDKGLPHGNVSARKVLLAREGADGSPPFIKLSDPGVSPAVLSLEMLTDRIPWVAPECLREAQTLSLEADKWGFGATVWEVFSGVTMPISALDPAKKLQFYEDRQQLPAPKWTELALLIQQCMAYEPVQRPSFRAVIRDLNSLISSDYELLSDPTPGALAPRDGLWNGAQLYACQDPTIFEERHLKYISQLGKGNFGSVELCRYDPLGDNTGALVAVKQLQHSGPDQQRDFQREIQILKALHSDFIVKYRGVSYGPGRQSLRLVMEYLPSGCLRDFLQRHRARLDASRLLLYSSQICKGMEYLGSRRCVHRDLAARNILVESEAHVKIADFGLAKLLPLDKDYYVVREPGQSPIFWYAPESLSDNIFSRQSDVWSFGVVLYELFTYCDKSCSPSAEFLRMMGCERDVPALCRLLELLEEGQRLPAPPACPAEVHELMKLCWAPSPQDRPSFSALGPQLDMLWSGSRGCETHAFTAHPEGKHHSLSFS", "assay": "JAK3 biochemical test (33P-ATP filter binding, Reaction Biology)", "conditions": "read-out: Inhibition of JAK3 (IC50)", "experimental": "as §1"}, "BV2 cells [1]": {"tested_on": "BV2 cells", "assay": "IL-6, TNF and MCP-1 production in LPS-stimulated BV2 cells (CBA assay)", "assay_type": "cell-based", "conditions": "for inhibition at 1.7 µM: Mus musculus, BV-2, LPS-treated BV2 cells", "experimental": "This testing was performed to test the ability of compounds to alleviate the injury of HT22 cells induced by LPS activated BV2 cells. The testing was performed according to the following procedure: 1) Microglia BV2 cells were co-cultured on transwell inserts with HT22hippocampal neurons. BV2 cells were stimulated with LPS (200 ng/ml) for 96 h after treatment with a compound of Formula (II) at 1.7 μM. 2) HT22 cells were pre-treated with a compound of Formula (II) at 1.7 μM for 30 min and subsequently stimulated with LPS (200 ng/ml) for 96 h. 3) BV2 cells were treated using LPS. IL-6, TNF and MCP-1 productions were measured in cell supernatants using CBA assay.\nIn LPS-treated BV2 cells, there was a marked increase in IL-6, TNF and MCP-1 production, when compared to unstimulated cells."}, "[2]": {"assay": "Brain penetration in mice", "assay_type": "in vivo, C57BL/6 mice", "conditions": "male, mouse, 30 mg/kg oral gavage, 4-hour post-dosing", "experimental": "This testing was performed to test the ability of compounds to penetrate the blood-brain-barrier in mice. The testing was performed according to the following procedure: 1) for each compound, take 3 male C57BL/6 mice with body weight of 17-18 g, formulate compound using 0.5% HPMC/water suspension at concentration of 3 mg/ml; 2) After fasting overnight, administer compound at 30 mg/kg by oral gavage; 3) Take plasma samples at 1, 2, 4 hours post-dosing; 4) At 4-hour post-dosing, also take brain tissues and cerebrospinal fluid (CSF) fluid; 5) Analyze compound concentration in plasma, brain tissue, and CSF fluid using LC-MS/MS method."}, "BV2 cells [3]": {"tested_on": "BV2 cells", "assay": "IL-6, TNF and MCP-1 production in LPS-stimulated BV2 cells (CBA assay)", "assay_type": "cell-based", "conditions": "Mus musculus, BV-2, LPS-treated BV2 cells"}, "[4]": {"conditions": "read-out: Inhibition of IL-6 production"}, "[5]": {"conditions": "read-out: Inhibition of MCP-1 production"}, "[6]": {"conditions": "read-out: Inhibition of TNF production"}}, "note": "pIC50: −log10 of the molar value. Entries after “also recorded” stand apart in the source; their conditions may differ. Like-named read-outs stand apart in the source and are kept apart here.", "data": [{"smiles": "Cc1nc2cnc3ccoc3c2n1[C@H]1CC[C@H](CC#N)OC1", "note": "[Formula (II)]", "values": [{"measurement": "pIC50", "setting": "TYK2", "result": "> 8.00"}, {"measurement": "pIC50", "setting": "JAK1", "result": "> 8.00"}, {"measurement": "pIC50", "setting": "JAK2", "result": "< 7.00"}, {"measurement": "pIC50", "setting": "JAK3", "result": "< 7.00"}, {"measurement": "IL-6, TNF and MCP-1 production (in words)", "setting": "BV2 cells [1]; LPS-stimulated BV2 cells, pre-treatment", "result": "dose-dependently reduced; also recorded: inhibited"}, {"measurement": "inhibition at 1.7 µM", "setting": "BV2 cells [1]; [4]", "result": 49.1, "unit": "%"}, {"measurement": "inhibition at 1.7 µM", "setting": "BV2 cells [1]; [5]", "result": 56.9, "unit": "%"}, {"measurement": "inhibition at 1.7 µM", "setting": "BV2 cells [1]; [6]", "result": 39.9, "unit": "%"}, {"measurement": "Kp at 4 h", "setting": "[2]; C57BL/6, CSF/plasma, read-out: CSF (ng/ml)/ Plasma (ng/ml)", "result": "> 0.15"}, {"measurement": "Kp at 4 h", "setting": "[2]; C57BL/6, brain/plasma, read-out: Brain (ng/ml)/ Plasma (ng/ml)", "result": "> 0.3"}, {"measurement": "inhibition at 5 µM", "setting": "BV2 cells [3]; [4]", "result": 72.4, "unit": "%"}, {"measurement": "inhibition at 5 µM", "setting": "BV2 cells [3]; [5]", "result": 83.3, "unit": "%"}, {"measurement": "inhibition at 5 µM", "setting": "BV2 cells [3]; [6]", "result": 81.2, "unit": "%"}, {"measurement": "inhibition at 15 µM", "setting": "BV2 cells [3]; [4]", "result": 83.6, "unit": "%"}, {"measurement": "inhibition at 15 µM", "setting": "BV2 cells [3]; [5]", "result": 111, "unit": "%"}, {"measurement": "inhibition at 15 µM", "setting": "BV2 cells [3]; [6]", "result": 118, "unit": "%"}]}]}
